Measured values published in patent publication US20060173015A1, “Cyclohexyldiamines as selective alpha 1a/1d adrenoreceptor antagonists for the treatment of benign prostatic hypertrophy and lower urinary tract symptoms” (priority 2004, published 2006).
Where two headings read alike, the source gives them in different places.

Key:
α1d-AR = molecular target: T1, α1d-AR (Homo sapiens, UniProt P25100); assay: α1-Adrenergic receptor radio-ligand (125I-HEAT) binding assay, α1d subtype
T1 construct: expressed in transfected cells; host or cells: COS-7
T1 sequence (P25100 1-572): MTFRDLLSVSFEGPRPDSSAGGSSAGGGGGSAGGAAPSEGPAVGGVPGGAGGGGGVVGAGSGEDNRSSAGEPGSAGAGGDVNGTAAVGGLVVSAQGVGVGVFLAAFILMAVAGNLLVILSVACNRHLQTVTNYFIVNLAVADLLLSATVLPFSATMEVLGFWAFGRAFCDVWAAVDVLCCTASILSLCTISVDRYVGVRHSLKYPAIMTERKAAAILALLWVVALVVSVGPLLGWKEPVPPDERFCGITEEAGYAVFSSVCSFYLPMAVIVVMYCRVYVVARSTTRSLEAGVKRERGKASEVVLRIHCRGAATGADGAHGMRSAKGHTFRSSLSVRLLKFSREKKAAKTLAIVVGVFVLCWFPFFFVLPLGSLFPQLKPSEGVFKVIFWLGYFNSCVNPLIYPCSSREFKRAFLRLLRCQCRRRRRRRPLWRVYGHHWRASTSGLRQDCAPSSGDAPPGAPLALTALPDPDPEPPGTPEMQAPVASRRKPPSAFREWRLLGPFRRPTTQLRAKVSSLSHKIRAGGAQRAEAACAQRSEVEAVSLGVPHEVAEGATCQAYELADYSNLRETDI
Protocol: α1-Adrenergic Receptor Binding Assay: Preparation of COS Cell Membranes
Membranes were prepared from COS-7 cells that had been transfected with one of the three α1-AR subtypes by the following method. COS cells from ten 100 mm tissue culture plates were scraped into 5 mL TE (50 mM Tris-HCl, 5 mM EDTA, pH 7.4). The cell suspension was disrupted with a Brinkman Polytron, setting 8, for 10 sec. The disrupted cells were centrifuged at 1000×g for 10 min at 4° C. Supernatants were centrifuged at 34,500×g for 20 min at 4° C. The membrane pellets were suspended in 2 mL TNE (50 mM Tris-HCl, 5 mM EDTA, 150 mM NaCl, pH7.4). An aliquot of the membrane suspension was stored at −70° C. until use. The protein concentration was determined using the BioRad DC protein assay kit following membrane solubilization with Triton X-100.
Radio-Ligand Binding Assay
Triplicate determinations of radio-ligand binding in the presence of increasing: concentrations of testing compound were made. The reagents were added to 96-well polypropylene plate wells using the Biomek 1000 robot (Beckman Instruments). […] The plate was incubated at rt for 1 hr. The contents of the wells were filtered through a GF/C membrane Unifilter plate (Packard Instruments) using the Packard Filtermate cell harvester. The filter plates were dried in a vacuum oven for 30 min at 40° C. 25 μL Microscint 20 liquid scintillation fluid (Packard Instuments) was added to each well. The radioactive content was analyzed in the TopCount microplate scintillation counter (Packard Instruments).

α1b-AR = molecular target: T2, α1b-AR (Homo sapiens, UniProt P35368); assay: α1-Adrenergic receptor radio-ligand (125I-HEAT) binding assay, α1b subtype; details: Receptor Binding, Ki α1b-AR, COS-7 cell membranes, 125I-HEAT
T2 sequence (P35368 1-520): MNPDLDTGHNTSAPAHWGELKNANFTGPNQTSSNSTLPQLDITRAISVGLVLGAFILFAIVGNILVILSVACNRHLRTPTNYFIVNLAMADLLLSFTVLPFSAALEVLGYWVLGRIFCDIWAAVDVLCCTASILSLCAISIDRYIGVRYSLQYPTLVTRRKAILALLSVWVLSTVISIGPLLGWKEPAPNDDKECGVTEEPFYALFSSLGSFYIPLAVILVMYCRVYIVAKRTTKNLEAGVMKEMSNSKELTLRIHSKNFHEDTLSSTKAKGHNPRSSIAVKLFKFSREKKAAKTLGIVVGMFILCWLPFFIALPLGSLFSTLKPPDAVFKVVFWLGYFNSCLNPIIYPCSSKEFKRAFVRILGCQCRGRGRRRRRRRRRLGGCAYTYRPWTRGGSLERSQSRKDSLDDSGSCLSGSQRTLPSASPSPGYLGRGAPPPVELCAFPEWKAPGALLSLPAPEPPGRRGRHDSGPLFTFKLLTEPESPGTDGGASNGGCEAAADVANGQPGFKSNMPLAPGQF

[1] = COS-7 cell membranes, 125I-HEAT, read-out: Receptor Binding, Ki α1d-AR
[2] = Receptor Binding, Ki α1d-AR, COS-7 cell membranes, 125I-HEAT

CC(C)Oc1ccccc1N1CCN([C@H]2CC[C@@H](NS(=O)(=O)c3cccc(Cl)c3F)CC2)CC1 [Cpd 23, 3-Chloro-2-fluoro-N-cis-{4-[4-(2-isopropoxy-phenyl)-piperazin-1-yl]-cyclohexyl}-benzenesulfonamide]
Ki (α1d-AR; [1]): 3 nM | Ki (α1b-AR): 195 nM

CC(C)Oc1ccccc1N1CCN([C@H]2CC[C@@H](NS(=O)(=O)c3cccc(C(F)(F)F)c3)CC2)CC1 [Cpd 16, N-cis-{4-[4-(2-Isopropoxy-phenyl)-piperazin-1-yl]-cyclohexyl}-3-trifluoromethyl-benzenesulfonamide]
Ki (α1b-AR): 222 nM

COc1ccc(S(=O)(=O)N[C@H]2CC[C@H](N3CCN(c4ccccc4OC(C)C)CC3)CC2)cc1OC [Cpd 35, N-trans-{4-[4-(2-Isopropoxy-phenyl)-piperazin-1-yl]-cyclohexyl}-3,4-dimethoxy-benzenesulfonamide]
Ki (α1d-AR): 24 nM | Ki (α1b-AR): 126 nM

COc1ccc(OC)c(S(=O)(=O)N[C@H]2CC[C@@H](N3CCN(c4ccccc4OC(C)C)CC3)CC2)c1 [Cpd 8, N-cis-{4-[4-(2-Isopropoxy-phenyl)-piperazin-1-yl]-cyclohexyl}-2,5-dimethoxy-benzenesulfonamide]
Ki (α1d-AR; [2]): 9.6 nM | Ki (α1b-AR): 167 nM

CC(C)Oc1ccccc1N1CCN([C@H]2CC[C@H](NS(=O)(=O)c3ccc(Cl)cc3F)CC2)CC1 [Cpd 52, 4-Chloro-2-fluoro-N-trans-{4-[4-(2-isopropoxy-phenyl)-piperazin-1-yl]-cyclohexyl}-benzenesulfonamide]
Ki (α1d-AR): 19 nM | Ki (α1b-AR): 243 nM

COc1ccc(OC)c(S(=O)(=O)N[C@H]2CC[C@H](N3CCN(c4ccccc4OC(C)C)CC3)CC2)c1 [Cpd 36, N-trans-{4-[4-(2-Isopropoxy-phenyl)-piperazin-1-yl]-cyclohexyl}-2,5-dimethoxy-benzenesulfonamide]
Ki (α1d-AR; [2]): 56 nM | Ki (α1b-AR): 424 nM

CC(C)Oc1ccccc1N1CCN([C@H]2CC[C@@H](NS(=O)(=O)c3ccc(S(C)(=O)=O)cc3)CC2)CC1 [Cpd 6, N-cis-{4-[4-(2-Isopropoxy-phenyl)-piperazin-1-yl]-cyclohexyl}-4-methanesulfonyl-benzenesulfonamide]
Ki (α1d-AR; [1]): 3.4 nM | Ki (α1b-AR): 195 nM

COc1ccc(Br)cc1S(=O)(=O)N[C@H]1CC[C@@H](N2CCN(c3ccccc3OC(C)C)CC2)CC1 [Cpd 28, 5-Bromo-N-cis-{4-[4-(2-isopropoxy-phenyl)-piperazin-1-yl]-cyclohexyl}-2-methoxy-benzenesulfonamide]
Ki (α1d-AR; [1]): 0.8 nM | Ki (α1b-AR): 42 nM

CC(C)Oc1ccccc1N1CCN([C@H]2CC[C@@H](NS(=O)(=O)c3ccccc3C#N)CC2)CC1 [Cpd 27, 2-Cyano-N-cis-{4-[4-(2-isopropoxy-phenyl)-piperazin-1-yl]-cyclohexyl}-benzenesulfonamide]
Ki (α1d-AR; [1]): 6.3 nM | Ki (α1b-AR): 217 nM

CC(C)Oc1ccccc1N1CCN([C@H]2CC[C@H](NS(=O)(=O)c3cccc(C(F)(F)F)c3)CC2)CC1 [Cpd 30, N-trans-{4-[4-(2-Isopropoxy-phenyl)-piperazin-1-yl]-cyclohexyl}-3-trifluoromethyl-benzenesulfonamide]
Ki (α1d-AR; [2]): 49 nM | Ki (α1b-AR): 204 nM

COc1ccc(S(=O)(=O)N[C@H]2CC[C@@H](N3CCN(c4ccccc4OC(C)C)CC3)CC2)cc1OC [Cpd 7, N-cis-{4-[4-(2-Isopropoxy-phenyl)-piperazin-1-yl]-cyclohexyl}-3,4-dimethoxy-benzenesulfonamide]
Ki (α1d-AR): 1 nM | Ki (α1b-AR): 109 nM

COc1ccc(Br)cc1S(=O)(=O)N[C@H]1CC[C@H](N2CCN(c3ccccc3OC(C)C)CC2)CC1 [Cpd 56, 5-Bromo-N-trans-{4-[4-(2-isopropoxy-phenyl)-piperazin-1-yl]-cyclohexyl}-2-methoxy-benzenesulfonamide]
Ki (α1d-AR; [1]): 38 nM | Ki (α1b-AR): 131 nM

CC(C)Oc1ccccc1N1CCN([C@H]2CC[C@H](NS(=O)(=O)c3ccccc3F)CC2)CC1 [Cpd 49, 2-Fluoro-N-trans-{4-[4-(2-isopropoxy-phenyl)-piperazin-1-yl]-cyclohexyl}-benzenesulfonamide]
Ki (α1d-AR; [2]): 30 nM | Ki (α1b-AR): 385 nM

CC(C)Oc1ccccc1N1CCN([C@H]2CC[C@@H](NS(=O)(=O)c3ccc(Cl)cc3F)CC2)CC1 [Cpd 24, 4-Chloro-2-fluoro-N-cis-{4-[4-(2-isopropoxy-phenyl)-piperazin-1-yl]-cyclohexyl}-benzenesulfonamide]
Ki (α1d-AR): 1.5 nM | Ki (α1b-AR): 101 nM

CC(C)Oc1ccccc1N1CCN([C@H]2CC[C@@H](NS(=O)(=O)c3cccc(C(F)(F)F)c3)CC2)CC1 [Cpd 2, N-cis-{4-[4-(2-Isopropoxy-phenyl)-piperazin-1-yl]-cyclohexyl}-3-trifluoromethyl-benzenesulfonamide]
Ki (α1b-AR): 276 nM

CC(C)Oc1ccccc1N1CCN([C@H]2CC[C@H](NS(=O)(=O)c3ccc(S(C)(=O)=O)cc3)CC2)CC1 [Cpd 34, N-trans-{4-[4-(2-Isopropoxy-phenyl)-piperazin-1-yl]-cyclohexyl}-4-methanesulfonyl-benzenesulfonamide]
Ki (α1d-AR; [1]): 22 nM | Ki (α1b-AR): 392 nM

CC(C)Oc1ccccc1N1CCN([C@H]2CC[C@H](NS(=O)(=O)c3ccccc3C#N)CC2)CC1 [Cpd 55, 2-Cyano-N-trans-{4-[4-(2-isopropoxy-phenyl)-piperazin-1-yl]-cyclohexyl}-benzenesulfonamide]
Ki (α1d-AR; [1]): 3.2 nM | Ki (α1b-AR): 31 nM

CC(C)Oc1ccccc1N1CCN([C@H]2CC[C@@H](NS(=O)(=O)c3ccccc3F)CC2)CC1 [Cpd 21, 2-Fluoro-N-cis-{4-[4-(2-isopropoxy-phenyl)-piperazin-1-yl]-cyclohexyl}-benzenesulfonamide]
Ki (α1d-AR; [2]): 2.7 nM | Ki (α1b-AR): 103 nM

CC(C)Oc1ccccc1N1CCN([C@H]2CC[C@H](NS(=O)(=O)c3cccc(Cl)c3F)CC2)CC1 [Cpd 51, 3-Chloro-2-fluoro-N-trans-{4-[4-(2-isopropoxy-phenyl)-piperazin-1-yl]-cyclohexyl}-benzenesulfonamide]
Ki (α1d-AR; [1]): 24 nM | Ki (α1b-AR): 348 nM

CC(C)Oc1ccccc1N1CCN([C@H]2CC[C@H](NS(=O)(=O)c3cccc(C(F)(F)F)c3)CC2)CC1 [Cpd 44, N-trans-{4-[4-(2-Isopropoxy-phenyl)-piperazin-1-yl]-cyclohexyl}-3-trifluoromethyl-benzenesulfonamide]
Ki (α1d-AR; [2]): 34.7 nM | Ki (α1b-AR): 334 nM
